Results taken from EP4541885A1, “OPTIMIZED PHLOROGLUCINOL SYNTHASES” (priority 2023, dated 2025).

Key:
Experiment in all cases: Kinetic parameters determination (HPLC monitoring of MLC consumed and CoA produced)
[1] = molecular target: T1, Tsukamurella pulmonis phloroglucinol synthase PhlD_Tpu WT, wild type, SEQ ID NO: 1 (Tsukamurella pulmonis, UniProt A0A1H1FBR5); type: biochemical; conditions: MLC 5-100 µM, sodium phosphate buffer 50 mM pH 7, 30°C, 0.5 µM pure enzyme
T1 sequence (A0A1H1FBR5 1-390): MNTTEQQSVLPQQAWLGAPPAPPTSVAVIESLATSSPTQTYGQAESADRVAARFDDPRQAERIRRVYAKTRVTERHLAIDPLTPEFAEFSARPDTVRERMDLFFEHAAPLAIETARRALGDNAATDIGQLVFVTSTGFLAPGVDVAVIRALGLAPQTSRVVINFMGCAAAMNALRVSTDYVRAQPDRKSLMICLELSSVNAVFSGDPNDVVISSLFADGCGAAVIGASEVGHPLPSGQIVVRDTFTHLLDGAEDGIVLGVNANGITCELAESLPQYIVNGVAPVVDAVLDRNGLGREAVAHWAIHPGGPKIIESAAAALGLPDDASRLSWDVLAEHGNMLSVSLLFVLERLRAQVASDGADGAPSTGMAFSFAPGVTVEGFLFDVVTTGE
Description: (§1) The selected PhlD_Tpu sequences are amplified from the yeast expression plasmid and fused with a 6xHis tag encoded at the C-terminus. This fusion is inserted into the pET26b(+) plasmid, between the XhoI and NdeI restriction sites (as shown in Figure 4), with the […] controlling its expression. The recombinant plasmid is used to transform E. coli BL21(DE3) competent cells, which are grown in LB medium (10 g/L NaCl, 10 g/L Tryptone, 5 g/L yeast extract) at 37° C with shaking, in a final volume of 500 mL. The expression of the recombinant plasmid is initiated by adding 0.1 mM of IPTG when the OD600nm reaches 0.4-0.5. The cells are then allowed to grow overnight at 20°C until they reach an OD600nm of approximately 1.5-1.6.
(§2) E. coli BL21(DE3) cells transformed as described in paragraph 1.2.4 above were disrupted by Fast-Prep at a speed setting of 6 m/sec for 3 cycles of 45 sec. The supernatant is filtered on a 0.45 µm membrane before being applied to a 1 mL Talon® Resin column. The column is washed first with 10 column volumes of sodium phosphate buffer (50 mM, pH7; NaCl 100 mM) and with 10 column volumes of sodium phosphate buffer with 10 mM of imidazole ([…], Phosphate buffer 50 mM, 500 mM imidazole pH 8.5; 100mM NaCl). Protein elution is performed using 150 mM imidazole in sodium phosphate buffer (50 mM pH 7, NaCl 100mM). Collected fractions are pooled and diafiltrated using 5 volumes of sodium phosphate buffer (50 mM pH 7, NaCl 100mM) using a 30 kDa diafiltration unit (Amicon ®Ultra, Merck) before reducing the volume to 500 µL.
(§3) The concentrate is applied on a gel filtration column (S200 TRICORN 10/300 Superdex 200). Elution is performed with an isocratic gradient of sodium phosphate buffer (50 mM pH 7, NaCl 100mM). The purity of the various fractions obtained is checked by SDS-PAGE (Mini-PROTEAN TGX Stain-Free Gels, Bio Rad)
(§4) In order to access the kinetic parameters of PhlD_Tpu, the concentrations of MLC consumed and CoA produced were monitored by HPLC. The experiments were run for 120 sec and only the linear part of CoA variation with time was used to calculate initial velocity. The experiments were carried using a range of MLC concentrations (5-100 µM) in sodium phosphate buffer (50 mM pH 7), at 30°C, and with 0.5 µM of pure enzyme. At 10, 20, 30, 50, 60 and 120 sec, 100 µL aliquots of the reaction mixture were quenched with 10 µL of 10% (v/v) formic acid and kept at room temperature before HPLC analysis. With these conditions, the CoA production increased linearly with time until 50 sec. Table 7: HPLC conditions for MLC and CoA separation and quantification.

[2] = test system: Tsukamurella pulmonis phloroglucinol synthase PhlD_Tpu variant M27 (A124P, A154P, S177A, S236P, E268Q, E271R, A298D), SEQ ID NO: 3; type: biochemical
Description: as §1, §2, §3, §4

[3] = test system: CC(C)(COP(=O)(O)OP(=O)(O)OC[C@H]1O[C@@H](n2cnc3c(N)ncnc32)[C@H](O)[C@@H]1OP(=O)(O)O)[C@@H](O)C(=O)NCCC(=O)NCCSC(=O)CC(=O)O; type: biochemical, Tsukamurella pulmonis; conditions: other: MLC 5-100 µM, sodium phosphate buffer 50 mM pH 7, 30°C, 0.5 µM pure enzyme
Description: as §1, §2, §3, §4

[4] = substrate: CC(C)(COP(=O)(O)OP(=O)(O)OC[C@H]1O[C@@H](n2cnc3c(N)ncnc32)[C@H](O)[C@@H]1OP(=O)(O)O)[C@@H](O)C(=O)NCCC(=O)NCCSC(=O)CC(=O)O; type: biochemical, Tsukamurella pulmonis; conditions: other: MLC 5-100 µM, sodium phosphate buffer 50 mM pH 7, 30°C, 0.5 µM pure enzyme; remark: listed apart in the source
Description: as §1
E. coli BL21(DE3) cells transformed as described in paragraph 1.2.4 above were disrupted by Fast-Prep at a speed setting of 6 m/sec for 3 cycles of 45 sec. The supernatant is filtered on a 0.45 µm membrane before being applied to a 1 mL Talon® Resin column. […]
In order to access the kinetic parameters of PhlD_Tpu, the concentrations of MLC consumed and CoA produced were monitored by HPLC. […] Table 7: HPLC conditions for MLC and CoA separation and quantification.

## CC(C)(COP(=O)(O)OP(=O)(O)OC[C@H]1O[C@@H](n2cnc3c(N)ncnc32)[C@H](O)[C@@H]1OP(=O)(O)O)[C@@H](O)C(=O)NCCC(=O)NCCSC(=O)CC(=O)O [malonyl-CoA]
[1]
  kcat: 0.38 s⁻¹
[2]; factor of reduction relative to PhlD_Tpu WT
  kcat reduced by a factor (M27 vs PhlD_Tpu WT): 1.3
[2]; relative to PhlD_Tpu WT
  KM relative to PhlD_Tpu WT: twice lower
  catalytic efficiency, times higher compared to PhlD_Tpu WT: 1.6

## Tsukamurella pulmonis phloroglucinol synthase PhlD_Tpu variant M27 (A124P, A154P, S177A, S236P, E268Q, E271R, A298D), SEQ ID NO: 3 (Tsukamurella pulmonis; A124P/A154P/A298D/E268Q/E271R/S177A/S236P)
[3]
  Km: 4.9 ± 0.544 µM
  kcat: 0.28 ± 0.06 s⁻¹
  kcat/Km: 57000 M⁻¹ s⁻¹

B1: Tsukamurella pulmonis phloroglucinol synthase PhlD_Tpu WT, wild type, SEQ ID NO: 1 (Tsukamurella pulmonis) (protein)
chain: MNTTEQQSVLPQQAWLGAPPAPPTSVAVIESLATSSPTQTYGQAESADRVAARFDDPRQAERIRRVYAKTRVTERHLAIDPLTPEFAEFSARPDTVRERMDLFFEHAAPLAIETARRALGDNAATDIGQLVFVTSTGFLAPGVDVAVIRALGLAPQTSRVVINFMGCAAAMNALRVSTDYVRAQPDRKSLMICLELSSVNAVFSGDPNDVVISSLFADGCGAAVIGASEVGHPLPSGQIVVRDTFTHLLDGAEDGIVLGVNANGITCELAESLPQYIVNGVAPVVDAVLDRNGLGREAVAHWAIHPGGPKIIESAAAALGLPDDASRLSWDVLAEHGNMLSVSLLFVLERLRAQVASDGADGAPSTGMAFSFAPGVTVEGFLFDVVTTGE
[4]
  Km: 10.52 µM
